Test [1] relates to Securin. Kind of test: Western of APC substrate in transformed wheat embryos. The class given is cell-based. The method, then:
(§1) A. Wheat embryos were transformed with an expression vector harboring the C43-4-HA peptide fused to the red fluoresce protein (RFP), or an RFP empty vector, using a ballistic shotgun approach. Embryos were imaged using fluorescence to view RFP. B. Protein lysates were prepared from the transformed embryos and subjected to western analyses using antibodies against the APC substrate Securin. A nonspecific protein band is used to control for protein load.
APC targets APC substrates for degradation such that the relative levels provides an indication of APC activity in a cell. For example, if the substrates are reduced, without being bound by any theory, it is believed to mean that the APC is working better.

Test [2] relates to WT cells. The test can be described thus: Chronological lifespan of WT yeast cells. The class given is cell-based. The method, then: (§2) A. apc5^CA (temperature sensitive allele) cells were transformed with C43-4, C2-4B or an empty vector. Cells grown overnight in 2% Glu were struck onto 2% Glucose plates and used for the yeast replicative lifespan (RLS) assay. B. Wild type (WT) cells transformed with C43-4, C2-4B or an empty vector were grown to stationary phase in 2% Glu media, then after 2 days spot diluted onto 2% Glu or 2% Gal to induce expression of the aptamers.
(§3) The six peptide expressing vectors were transformed into apc10Δ cells and assessed for temperature sensitive growth. Two of the peptides, C43-4 and C2-4B, suppressed the apc10Δ growth phenotype at 30 and 34° C. (FIG. 1B-D). […] However, C43-4 and C2-4B increased replicative and chronological lifespan in both apc5^CA and WT cells, respectively (FIG. 2A). […] H2O2 induces oxidative stress whereas galactose induces a carbon stress.

In test [3] the target is T1, Apc10 (Saccharomyces cerevisiae, UniProt P53068).
T1 construct: expressed in transfected cells; host or cells: yeast Y2H cells
T1 sequence (P53068 1-250): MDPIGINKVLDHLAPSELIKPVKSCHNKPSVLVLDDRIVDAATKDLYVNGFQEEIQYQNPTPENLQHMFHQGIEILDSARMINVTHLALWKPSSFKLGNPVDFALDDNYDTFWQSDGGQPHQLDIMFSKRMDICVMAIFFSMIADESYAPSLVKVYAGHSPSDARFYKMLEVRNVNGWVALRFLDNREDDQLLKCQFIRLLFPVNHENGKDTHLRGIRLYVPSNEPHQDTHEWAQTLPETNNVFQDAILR
The test can be described thus: Yeast 2-hybrid (Y2H) binding of peptide prey to Apc10 bait. Conditions: galactose-inducible Trx-scaffold peptide prey. As for the experimental part: (§4) The reverse genetic screen utilized a yeast 2-hybrid (Y2H) protocol that selected for peptides that bound to the APC subunits Apc5 or Apc10 (see FIG. 5 for APC structure), to assess whether peptide-binding might modify APC function. Peptides that bound APC subunits were then assayed for those that suppressed APC mutant defects.
A library of random small peptides were cloned into a Thioredoxin (Trx) scaffold (see FIG. 6 for Trx-aptamer structure) and expressed from a galactose-inducible Y2H prey vector in cells expressing the Apc10 bait vector (the modified Apc10 is still part of the complete APC complex). Six peptides that reproducibly interacted with the Apc10 bait construct in Y2H assays were identified (FIG. 1A) and were examined further.
Random small peptides were cloned into the TrxA scaffold (library provided by R. Geyer, U of S) and expressed from a galactose-inducible Y2H prey vector in cells harboring either APC5 or APC10 Y2H bait vectors (APC5/APC10 bait constructs complement APC mutant defects).
(§5) Over 100 peptides that bound either Apc5 or Apc10 were recovered from millions screened. Six peptides that reproducibly interacted with the Apc10 bait construct in Y2H assays were examined further. Vectors expressing these 6 peptides were transformed into APC mutant cells and assessed for ts growth.

Test [4] concerns APC mutant (apc5 temperature sensitive mutant and/or apc10Δ mutant). The test can be described thus: Viability/growth of APC mutant yeast cells. The class given is cell-based. As for the experimental part:
(§6) A. apc5^CA cells expressing small peptides were assayed for replicative life span (RLS). B. Cells expressing HTZ1 were grown under stress conditions. HTZ1 expression, even at low levels, suppresses apc5^CA and apc10Δ defects. The cells shown were transformed with either an empty vector or GAL inducible HTZ1. On 2% glucose, the construct is weakly expressed, and this is enough to increase growth of APC mutants at 30° C.
Examples of yeast cells with defective anaphase promoting complex (APC) function include apc5 and apc10 mutants. An example of an apc5 mutant is the apc5 temperature sensitive mutant described herein. An example of an apc10 mutant is the apc10 deletion mutant described herein.
as §4, §5

For test [5], the system named is apc5^CA cells. The test can be described thus: Yeast replicative lifespan (RLS) assay. Type of test: cell-based. The method, then:
as §2, §6

In test [6] the test system is apc10Δ cells. Kind of test: Spot dilution growth of apc10Δ cells expressing peptides. The class given is cell-based, yeast. The settings on record: 30 and 34° C. The source says: A. Y2H cells expressing the APC subunit bait and the galactose inducible Apc10 peptide prey grown on glucose or galactose. Cells co-expressing the Apc5 or Apc10-bait and Apc10 aptamer-prey vectors were spotted onto the appropriate media, in the presence or absence of galactose (the aptamers are Gal inducible), to confirm 2-hybrid interactions. Growth on trp-his-media ensures both plasmids are maintained. A 2-hybrid interaction will drive expression of the ADE2 gene, allowing growth on ade-media. B. Aptamers that bind Apc10 can suppress APC mutant phenotypes. Spot dilutions of apc10Δ cells expressing an empty vector control or the one of 6 Apc10 aptamers tested. Log phase cells were 10-fold serially diluted and spotted onto plates containing either 2% glucose or 2% galactose. The plates were then incubated at 30° C. (permissive temperature) and 34° C. (restrictive stress). C. Peptides identified as binding to the yeast Apc10 APC subunit using the yeast 2-hybrid screen increase growth of cells on stress conditions. A series of APC binding peptides were transformed into wild type yeast cells, spot diluted, and grown at 30° C. on media supplemented with the normal carbon source (2% glucose). Alternatively, cells were grown on media supplemented with 2% galactose to induce a carbon stress. D. Peptides were expressed in apc5^ts temperature sensitive cells and grown on glucose or galactose media at 30° C.
The cells were exposed to 5 sec of UV from a UV box prior to incubation.
The six peptide expressing vectors were transformed into apc10Δ cells and assessed for temperature sensitive growth. Two of the peptides, C43-4 and C2-4B, suppressed the apc10Δ growth phenotype at 30 and 34° C. (FIG. 1B-D). […]
Over 100 peptides that bound either Apc5 or Apc10 were recovered from millions screened. […] Vectors expressing these 6 peptides were transformed into APC mutant cells and assessed for ts growth.
Methods • 1. […] The growth of the cells was determined by measuring the optical density (OD) of the cells at 600 nm (OD600) • 3. […]

Test [7] deals with wild type (WT) yeast cells. Kind of test: Spot dilution growth and stress resistance of wild type yeast cells expressing peptides. The class given is cell-based. As for the experimental part: as §2
The cells were exposed to 5 sec of UV from a UV box prior to incubation. The plus signs define growth compared to the empty vector control.
as §3
These cells were spot diluted on Trp-plates and grown at the temperatures shown and/or exposed to ultraviolet (UV) irradiation (FIG. 11). At low level expression on glucose, some of the mutations caused stress dependent phenotypes.
Methods • 1. Cells were cultured overnight in Trp-2% glucose media • 2. The growth of the cells was determined by measuring the optical density (OD) of the cells at 600 nm (OD600) • 3. Cells were diluted to OD600 of 1 with fresh culture media • 4. 100 ul of each culture was pipetted into a well of a 96 well plate • 5. 10 ul of the each starting culture was pipetted into 90 ul of water in 4 additional wells to make a 10-fold serial spot dilution • 6. 5 ul from each serial dilution was spotted onto plates containing standard growth media with either 2% glucose or 2% galactose using a multi-pipettor • 7. The plates were exposed to UV • 8. The plates were then placed at room temperature, 30, 34 or 37° C. for 3-7 days • 9. The plates were scanned and saved as tiff files

Test [8] deals with wheat embryos. The test can be described thus: Expression of C43-4 in wheat embryos: localization and germination. Type of test: in vivo. Conditions: versus empty vector controls. The method, then:
as §1
C43-4 was subcloned into a plant vector and expressed in wheat embryos.
The wheat embryos (scutella) were transformed using a Biolistics-mediated transformation of wheat embryos. Wheat embryos were inoculated with Agrobacterium harbouring an RFP expression vector. Following inoculation with Agrobacterium, embryos were placed on a medium that allows for growth of both the embryos and the Agrobacterium. Timentin was used for killing remaining A. tumefaciens cells after co-cultivation.
Germination rate was determined as a function of time to observe growth from the embryo and on average, the transformed embryos containing the peptide germinated before empty vector controls. […] Accordingly, the Htz1-like peptide (C43-4) activates the APC in plants.

No end group written: not given here.

Regarding “NGSSHNDLRVRRLTLISRLC (also: expressed in thioredoxin scaffold) [C43-4, Peptide aptamer expressed from Thioredoxin scaffold; residues 2-14 homologous to Htz1]”, the “Level of tested APC substrate in the embryo” value in test [1] is listed as “reduced level”. Besides, the Chronological lifespan result in test [2] was “increased”. In addition, the “Binds Apc10 in a yeast 2 hybrid assay” value in test [3] is “Binds Apc10”. The “Viability of an APC mutant” value in test [4] is listed as “increases the viability”. Moreover, the Replicative lifespan result in test [5] is given as “increased”. For the same sequence, the apc10Δ growth phenotype entry in test [6] is recorded as “suppressed”. In addition, the “Log phase growth of wild type (WT) cells” value in test [7] (30° C.) is “Neither C43-4 nor C2-4B influenced”. Besides, the “Stress resistance at low level expression” value in test [7] (WT cells on glucose, temperature and/or UV stress, versus empty vector) is on record as “increased stress resistance”. In addition, the “Stress resistance when overexpressed in WT yeast cells” value in test [7] (overexpressed, H2O2 oxidative stress, galactose carbon stress) is “increased stress resistance”. Further, the “Germination of transformed wheat embryos” value in test [8] is on record as “germinated faster”.

The values are drawn from patent US11819021B2, “Peptides and methods and uses thereof for modulating anaphase promoting complex (APC) activity” (University of Saskatchewan, priority 2017, dated 2023).
